The experiment deals with T1, GABAA receptor (GABAAR), native, cultured rat hippocampal neurons.
T1 construct: gene Gabra1; native receptors of unresolved subunit composition in primary cultured hippocampal neurons (12-16 DIV for firing recordings)
Nature of the experiment: whole-cell patch clamp, peak current. In kind it is cell-based. Particulars: direct activation without GABA; holding potential −50 mV; pH 7.3.

`CC(C)[C@@H]1CC[C@@H](C)C[C@H]1O` [menthol] displayed an EC50 of 490 µM.

The values are drawn from PMC2560999, “A-Type GABA Receptor as a Central Target of TRPM8 Agonist Menthol” (PLoS ONE, 2008).
